Measurements from ChEMBL document CHEMBL5331073, “Discovery of novel 7,7-dimethyl-6,7-dihydro-5H-pyrrolo[3,4-d]pyrimidines as ATR inhibitors based on structure-based drug design” (Eur J Med Chem, 2023).
In brackets after ≈: the same amount, converted by molar mass. Activity calls are given as the source filed them. No cut-off for these calls is given here.

What was measured:
[1] = biological target: Serine/threonine-protein kinase mTOR (Homo sapiens, UniProt P42345); assay: Inhibition of mTOR (unknown origin) using peptide as substrate preincubated for 10 mins followed by substrate addition by microplate reader analysis
LoVo [2] = assay: Antiproliferative activity against ATM-deficient human LoVo cells assessed as reduction in cell proliferation incubated for 3 days by MTT assay; assay type: functional, cell-based; settings: 72 h
HT-29 [3] = assay: Antiproliferative activity against ATM-proficient human HT-29 cells assessed as reduction in cell proliferation incubated for 3 days by MTT assay; assay type: functional, cell-based; settings: HT-29, 72 h
LoVo [4] = assay: Antiproliferative activity against ATM-deficient human LoVo cells assessed as reduction in cell proliferation at 0.1 to 25 uM incubated for 3 days by MTT assay; assay type: functional, cell-based; settings: dose 0.1-25 µM, time 3.0 day
HT-29 [5] = assay: Antiproliferative activity against ATM-proficient human HT-29 cells assessed as reduction in cell proliferation at 0.5 to 22 uM incubated for 3 days by MTT assay; assay type: functional, cell-based; settings: dose 0.5-22 µM, time 3.0 day
[6] = Half life in Sprague-Dawley rat at 1 mg/kg, iv and measured upto 24 hrs by LC-MS analysis; assay type: ADME, organism-based; settings: in vivo
[7] = MRT(t) in Sprague-Dawley rat at 1 mg/kg, iv and measured upto 24 hrs by LC-MS analysis; assay type: ADME, organism-based; settings: in vivo
[8] = AUC(0 to infinity) in Sprague-Dawley rat at 1 mg/kg, iv and measured upto 24 hrs by LC-MS analysis; assay type: ADME, organism-based; set-up: time < 24 hrs, dose 1 mg/kg, route iv; settings: in vivo
[9] = AUCt in Sprague-Dawley rat at 1 mg/kg, iv and measured upto 24 hrs by LC-MS analysis; assay type: ADME, organism-based; set-up: dose 1 mg/kg, time < 24 hrs, route iv; settings: in vivo
[10] = MRT(t) in Sprague-Dawley rat at 5 mg/kg, po and measured upto 24 hrs by LC-MS analysis; assay type: ADME, organism-based; settings: in vivo
Cytochrome P450 2C9 = Cytochrome P450 2C9 (Homo sapiens, UniProt P11712); assay: Inhibition of CYP2C9 in human liver microsomes using […] as substrate preincubated for 5 mins followed by NADPH addition and measured after 120 mins by LC-MS/MS analysis; assay type: ADME, Microsome
Cytochrome P450 2C19 = Cytochrome P450 2C19 (Homo sapiens, UniProt P33261); assay: Inhibition of CYP2C19 in human liver microsomes using […] as substrate preincubated for 5 mins followed by NADPH addition and measured after 120 mins by LC-MS/MS analysis; assay type: ADME, Microsome
[11] = Protein binding in monkey plasma at 1 uM incubated for 6 hrs by dialysis based LC-MS/MS analysis; assay type: ADME, cell-free, Macaca mulatta; settings: rhesus monkey, read-out: PPB (converted)
[12] = Protein binding in Beagle dog plasma at 1 uM incubated for 6 hrs by dialysis based LC-MS/MS analysis; assay type: ADME, cell-free, Canis lupus familiaris; settings: read-out: PPB (converted)
[13] = Protein binding in rat plasma at 1 uM incubated for 6 hrs by dialysis based LC-MS/MS analysis; assay type: ADME, cell-free; settings: read-out: PPB (converted)
[14] = Protein binding in mouse plasma at 1 uM incubated for 6 hrs by dialysis based LC-MS/MS analysis; assay type: ADME, cell-free; settings: read-out: PPB (converted)
LoVo [15] = assay: Inhibition of colony formation of ATM-deficient human LoVo cells at 0.03 to 3 uM incubated for 2 weeks by crystal violet staining based assay; assay type: functional, cell-based; settings: dose 0.03-3 µM
LoVo [16] = assay: Inhibition of colony formation of ATM-deficient human LoVo cells at 0.3 to 1 uM incubated for 2 weeks by crystal violet staining based assay; assay type: functional, cell-based; settings: dose 0.3-1 µM
LoVo [17] = assay: Antimigratory activity against ATM-deficient human LoVo cells assessed as inhibition of cell migration at 0.03 to 3 uM incubated for 24 hrs by crystal violet staining based Transwell migration assay; assay type: functional; settings: dose 0.03-3 µM
HT-29 [18] = assay: Antiproliferative activity against ATM-proficient human HT-29 cells assessed as reduction in cell viability incubated for 3 days in presence of AZD-1390 by MTT assay; assay type: functional, cell-based; settings: HT-29, 72 h
A549 = assay: Synergistic antiproliferative activity against ATM-proficient human A549 cells assessed as reduction in cell viability incubated for 3 days in presence of oxaliplatin by MTT assay; assay type: functional, cell-based; settings: A549, 72 h
MDA-MB-231 = assay: Antiproliferative activity against human MDA-MB-231 cells assessed as reduction in cell viability incubated for 3 days by MTT assay; assay type: functional, cell-based; settings: MDA-MB-231, 72 h
[19] = Aqueous solubility of compound at pH 2.0 by HPLC-MS/MS analysis; assay type: physicochemical; settings: aqueous medium
[20] = Apparent permeability across apical to basolateral side in human Caco-2 cells by bidirectional permeability assay; assay type: ADME, cell-based
[21] = Efflux ratio of apparent permeability across basolateral to apical side over apical to basolateral side in human Caco2 cells; assay type: ADME, cell-based; settings: Caco-2
[22] = biological target: Serine-protein kinase ATM (Homo sapiens, UniProt Q13315); assay: Inhibition of ATM (unknown origin) using peptide as substrate preincubated for 10 mins followed by substrate addition by microplate reader analysis
[23] = biological target: DNA-dependent protein kinase catalytic subunit (Homo sapiens, UniProt P78527); assay: Inhibition of DNA-PK (unknown origin) using peptide as substrate preincubated for 10 mins followed by substrate addition by microplate reader analysis
in vitro [24] = settings: human, liver microsomes
in vitro [25] = settings: rat, liver microsomes

DNA-dependent protein kinase catalytic subunit, sequence (P78527 whole entry): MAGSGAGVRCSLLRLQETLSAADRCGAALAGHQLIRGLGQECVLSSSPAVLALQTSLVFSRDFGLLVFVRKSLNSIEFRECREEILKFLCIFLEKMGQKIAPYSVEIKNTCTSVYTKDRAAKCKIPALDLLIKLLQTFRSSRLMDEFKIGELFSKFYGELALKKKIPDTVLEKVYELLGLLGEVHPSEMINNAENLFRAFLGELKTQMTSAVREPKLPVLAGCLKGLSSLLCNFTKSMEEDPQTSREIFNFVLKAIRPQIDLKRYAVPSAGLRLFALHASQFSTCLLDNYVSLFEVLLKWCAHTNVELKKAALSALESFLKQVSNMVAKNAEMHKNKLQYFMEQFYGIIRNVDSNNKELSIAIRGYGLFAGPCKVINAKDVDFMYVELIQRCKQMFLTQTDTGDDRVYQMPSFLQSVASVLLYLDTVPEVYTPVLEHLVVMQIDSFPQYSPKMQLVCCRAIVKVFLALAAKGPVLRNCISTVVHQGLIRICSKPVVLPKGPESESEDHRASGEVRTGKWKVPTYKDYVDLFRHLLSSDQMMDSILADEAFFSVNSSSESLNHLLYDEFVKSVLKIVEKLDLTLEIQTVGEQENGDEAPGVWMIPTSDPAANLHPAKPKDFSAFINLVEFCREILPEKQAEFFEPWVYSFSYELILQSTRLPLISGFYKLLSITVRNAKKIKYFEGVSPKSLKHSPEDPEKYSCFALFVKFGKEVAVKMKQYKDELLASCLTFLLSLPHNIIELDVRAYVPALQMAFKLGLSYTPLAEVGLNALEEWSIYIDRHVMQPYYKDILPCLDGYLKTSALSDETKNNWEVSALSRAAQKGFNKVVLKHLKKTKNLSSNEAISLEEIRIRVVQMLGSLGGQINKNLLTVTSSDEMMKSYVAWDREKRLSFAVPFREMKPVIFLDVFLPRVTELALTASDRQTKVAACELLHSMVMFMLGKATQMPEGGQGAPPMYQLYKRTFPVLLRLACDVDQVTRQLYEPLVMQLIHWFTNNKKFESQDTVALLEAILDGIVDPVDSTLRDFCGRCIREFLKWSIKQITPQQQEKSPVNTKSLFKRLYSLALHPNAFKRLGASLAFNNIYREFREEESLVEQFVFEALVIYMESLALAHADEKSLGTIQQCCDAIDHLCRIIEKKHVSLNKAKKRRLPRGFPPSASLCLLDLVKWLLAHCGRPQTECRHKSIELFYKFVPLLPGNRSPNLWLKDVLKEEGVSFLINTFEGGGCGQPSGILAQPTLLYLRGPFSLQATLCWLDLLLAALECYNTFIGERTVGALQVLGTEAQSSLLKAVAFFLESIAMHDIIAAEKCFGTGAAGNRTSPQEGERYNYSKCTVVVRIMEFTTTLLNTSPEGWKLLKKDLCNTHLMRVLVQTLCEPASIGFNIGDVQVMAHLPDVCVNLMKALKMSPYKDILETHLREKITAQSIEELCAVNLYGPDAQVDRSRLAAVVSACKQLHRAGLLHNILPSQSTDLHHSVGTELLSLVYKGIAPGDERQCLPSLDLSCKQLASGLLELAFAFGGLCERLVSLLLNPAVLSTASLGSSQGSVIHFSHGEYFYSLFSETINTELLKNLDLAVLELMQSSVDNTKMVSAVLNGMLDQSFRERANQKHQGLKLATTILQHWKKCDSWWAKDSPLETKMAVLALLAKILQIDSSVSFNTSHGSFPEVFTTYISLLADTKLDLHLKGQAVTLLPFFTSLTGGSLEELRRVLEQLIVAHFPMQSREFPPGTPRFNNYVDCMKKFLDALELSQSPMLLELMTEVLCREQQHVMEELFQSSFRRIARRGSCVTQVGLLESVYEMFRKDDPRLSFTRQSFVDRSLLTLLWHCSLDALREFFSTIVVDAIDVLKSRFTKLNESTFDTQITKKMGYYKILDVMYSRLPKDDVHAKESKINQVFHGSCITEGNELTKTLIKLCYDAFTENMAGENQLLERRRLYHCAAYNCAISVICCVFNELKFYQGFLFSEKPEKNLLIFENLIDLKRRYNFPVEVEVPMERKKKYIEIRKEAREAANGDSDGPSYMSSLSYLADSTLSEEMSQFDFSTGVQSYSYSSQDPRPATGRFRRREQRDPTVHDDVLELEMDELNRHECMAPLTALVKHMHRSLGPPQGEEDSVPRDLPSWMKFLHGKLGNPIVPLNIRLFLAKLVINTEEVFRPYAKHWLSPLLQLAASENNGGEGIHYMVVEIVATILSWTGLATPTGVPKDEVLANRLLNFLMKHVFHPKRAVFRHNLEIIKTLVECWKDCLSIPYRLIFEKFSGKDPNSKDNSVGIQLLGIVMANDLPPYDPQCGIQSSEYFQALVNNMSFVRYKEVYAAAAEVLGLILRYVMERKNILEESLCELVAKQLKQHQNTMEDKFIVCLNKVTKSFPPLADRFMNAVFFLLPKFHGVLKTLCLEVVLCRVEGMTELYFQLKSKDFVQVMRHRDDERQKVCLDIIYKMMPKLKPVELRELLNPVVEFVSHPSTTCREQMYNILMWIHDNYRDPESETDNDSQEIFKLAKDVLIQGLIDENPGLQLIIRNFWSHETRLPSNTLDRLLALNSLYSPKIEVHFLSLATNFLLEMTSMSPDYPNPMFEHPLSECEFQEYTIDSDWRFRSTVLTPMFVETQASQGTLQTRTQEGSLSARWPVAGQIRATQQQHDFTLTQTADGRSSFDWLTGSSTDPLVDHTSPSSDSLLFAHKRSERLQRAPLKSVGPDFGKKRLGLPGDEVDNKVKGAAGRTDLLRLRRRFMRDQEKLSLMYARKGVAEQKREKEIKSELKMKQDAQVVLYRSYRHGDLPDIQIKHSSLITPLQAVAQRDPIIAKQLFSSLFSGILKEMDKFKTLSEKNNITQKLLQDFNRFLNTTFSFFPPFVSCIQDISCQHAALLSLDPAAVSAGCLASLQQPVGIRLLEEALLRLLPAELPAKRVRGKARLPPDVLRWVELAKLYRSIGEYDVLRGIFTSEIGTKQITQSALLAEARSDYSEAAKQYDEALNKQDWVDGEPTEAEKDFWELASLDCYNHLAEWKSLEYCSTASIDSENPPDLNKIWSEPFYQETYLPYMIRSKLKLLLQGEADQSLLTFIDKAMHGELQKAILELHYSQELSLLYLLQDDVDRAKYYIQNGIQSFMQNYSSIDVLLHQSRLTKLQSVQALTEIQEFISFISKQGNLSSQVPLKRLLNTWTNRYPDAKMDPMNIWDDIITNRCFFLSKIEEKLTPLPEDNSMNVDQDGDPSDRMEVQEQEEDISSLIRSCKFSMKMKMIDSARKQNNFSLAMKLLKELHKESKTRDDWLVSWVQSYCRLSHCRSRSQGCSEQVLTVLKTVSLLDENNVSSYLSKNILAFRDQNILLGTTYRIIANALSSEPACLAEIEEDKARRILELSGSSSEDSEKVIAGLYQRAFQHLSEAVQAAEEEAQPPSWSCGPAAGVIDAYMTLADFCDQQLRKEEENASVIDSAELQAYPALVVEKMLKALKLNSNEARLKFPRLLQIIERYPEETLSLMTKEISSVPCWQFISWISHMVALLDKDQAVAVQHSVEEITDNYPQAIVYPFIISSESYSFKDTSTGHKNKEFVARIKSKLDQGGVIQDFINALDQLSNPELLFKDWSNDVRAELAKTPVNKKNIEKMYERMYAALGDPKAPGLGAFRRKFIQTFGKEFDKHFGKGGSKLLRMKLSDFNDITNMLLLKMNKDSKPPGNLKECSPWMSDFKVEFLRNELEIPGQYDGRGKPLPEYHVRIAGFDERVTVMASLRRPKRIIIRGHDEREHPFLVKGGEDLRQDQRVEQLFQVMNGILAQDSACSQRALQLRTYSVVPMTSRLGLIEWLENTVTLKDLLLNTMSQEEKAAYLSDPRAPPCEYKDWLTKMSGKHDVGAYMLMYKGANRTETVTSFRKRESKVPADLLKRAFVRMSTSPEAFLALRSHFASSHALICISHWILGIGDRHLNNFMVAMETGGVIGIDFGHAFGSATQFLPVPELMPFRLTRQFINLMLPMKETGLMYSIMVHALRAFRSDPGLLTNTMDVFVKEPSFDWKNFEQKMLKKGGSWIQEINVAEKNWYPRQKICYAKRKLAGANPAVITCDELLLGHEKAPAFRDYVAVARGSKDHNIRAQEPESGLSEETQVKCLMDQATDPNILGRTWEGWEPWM
Cytochrome P450 2C9, sequence (P11712 whole entry): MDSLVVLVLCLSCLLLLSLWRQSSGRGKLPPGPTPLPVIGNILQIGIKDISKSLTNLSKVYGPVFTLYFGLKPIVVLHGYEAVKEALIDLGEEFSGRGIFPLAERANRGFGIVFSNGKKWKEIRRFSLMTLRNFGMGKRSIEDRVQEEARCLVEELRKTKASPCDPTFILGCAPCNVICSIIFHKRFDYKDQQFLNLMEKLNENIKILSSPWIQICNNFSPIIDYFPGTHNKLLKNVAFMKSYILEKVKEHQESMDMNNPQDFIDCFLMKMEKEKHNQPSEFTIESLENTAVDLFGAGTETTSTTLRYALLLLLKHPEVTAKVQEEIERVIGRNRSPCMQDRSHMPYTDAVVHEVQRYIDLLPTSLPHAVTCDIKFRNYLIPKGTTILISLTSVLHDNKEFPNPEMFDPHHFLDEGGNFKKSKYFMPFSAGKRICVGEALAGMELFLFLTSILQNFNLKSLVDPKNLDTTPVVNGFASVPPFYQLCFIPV
Cytochrome P450 2C19, sequence (P33261 whole entry): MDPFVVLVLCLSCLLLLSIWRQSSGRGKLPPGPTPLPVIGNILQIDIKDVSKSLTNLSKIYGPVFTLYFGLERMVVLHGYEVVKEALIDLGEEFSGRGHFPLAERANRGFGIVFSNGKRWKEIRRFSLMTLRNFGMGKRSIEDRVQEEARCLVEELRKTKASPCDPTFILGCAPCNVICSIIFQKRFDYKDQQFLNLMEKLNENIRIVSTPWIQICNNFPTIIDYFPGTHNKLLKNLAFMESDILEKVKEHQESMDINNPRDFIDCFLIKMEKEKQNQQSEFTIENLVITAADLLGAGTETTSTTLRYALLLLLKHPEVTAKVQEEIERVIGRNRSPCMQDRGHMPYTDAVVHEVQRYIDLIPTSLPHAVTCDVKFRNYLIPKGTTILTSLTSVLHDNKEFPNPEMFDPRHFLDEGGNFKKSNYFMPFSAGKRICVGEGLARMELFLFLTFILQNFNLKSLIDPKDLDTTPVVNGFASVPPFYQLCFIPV

| IC50 [1] [nM] | IC50 (LoVo [2]) [nM] | IC50 (HT-29 [3]) [nM] | half-life [6] [h] | MRT last at 24 h [7] [h] | AUC(0-inf) [8] [ng·h/mL] | AUC(0-t) at 24 h [9] [ng·h/mL] | MRT last at 24 h [10] [h] | IC50 (Cytochrome P450 2C9) [nM] | IC50 (Cytochrome P450 2C19) [nM] | fraction unbound at 6 h, 1 µM [11] | fraction unbound at 6 h, 1 µM [12] | fraction unbound at 6 h, 1 µM [13] | fraction unbound at 6 h, 1 µM [14] | IC50 (HT-29 [18]) [nM] | IC50 (A549) [nM] | IC50 (MDA-MB-231) [nM] | solubility [19] [µM] | SMILES | inhibition (LoVo [15]) | inhibition (LoVo [17]) | other results |
| --- | --- | --- | --- | --- | --- | --- | --- | --- | --- | --- | --- | --- | --- | --- | --- | --- | --- | --- | --- | --- | --- |
| 18 | 40 | 197 | 1.32 | 1.36 | 1170 | 1160 | 3.6 | 10000 | 1000 | 0.079 | 0.022 | 0.039 | 0.024 | 19 | 114 | 1070 | 84.3 (≈ 46 µg/mL) | C[C@@H]1COCCN1c1nc(-c2cccc3[nH]ccc23)nc2c1CN(C(=O)c1cccc(S(C)(=O)=O)c1)C2(C)C | Dose-Dependent Effect | Active | Activity (LoVo [4]): Dose-Dependent Effect; Activity (HT-29 [5]): Dose-Dependent Effect; inhibition (LoVo [16]): Active; Papp A→B [20]: 8.23 ×10⁻⁶ cm/s; efflux ratio [21]: 2; IC50 [22]: 1000 nM; IC50 [23]: 662 nM; half-life at 1 h, 1 µM (in vitro [24]): 0.0567 h; half-life at 1 h, 1 µM (in vitro [25]): 0.35 h |
| 33 | 78 | 421 | 1.59 | 1.99 | 2810 | 2740 | 4.36 | 10000 | 1000 | 0.011 | 0.005 | 0.001 | 0.005 | 45 | 337 | 2570 | 47.6 (≈ 24.4 µg/mL) | C[C@@H]1COCCN1c1nc(-c2cccc3[nH]ccc23)nc2c1CN(C(=O)c1ccc3c(c1)OCO3)C2(C)C | Dose-Dependent Effect | Active | Papp A→B [20]: 1.91 ×10⁻⁶ cm/s; efflux ratio [21]: 1.2; IC50 [22]: 516 nM; IC50 [23]: 1000 nM; half-life at 1 h, 1 µM (in vitro [24]): 0.435 h; half-life at 1 h, 1 µM (in vitro [25]): 0.655 h |
